For one molecule, IC50 results are on record in ChEMBL document CHEMBL5052846, “Pyridine derivatives as kif18a inhibitors” (2021).

For this assay, the target named is T1, Kinesin-like protein KIF18A (Homo sapiens, UniProt Q8NI77).
T1 sequence (Q8NI77 whole entry): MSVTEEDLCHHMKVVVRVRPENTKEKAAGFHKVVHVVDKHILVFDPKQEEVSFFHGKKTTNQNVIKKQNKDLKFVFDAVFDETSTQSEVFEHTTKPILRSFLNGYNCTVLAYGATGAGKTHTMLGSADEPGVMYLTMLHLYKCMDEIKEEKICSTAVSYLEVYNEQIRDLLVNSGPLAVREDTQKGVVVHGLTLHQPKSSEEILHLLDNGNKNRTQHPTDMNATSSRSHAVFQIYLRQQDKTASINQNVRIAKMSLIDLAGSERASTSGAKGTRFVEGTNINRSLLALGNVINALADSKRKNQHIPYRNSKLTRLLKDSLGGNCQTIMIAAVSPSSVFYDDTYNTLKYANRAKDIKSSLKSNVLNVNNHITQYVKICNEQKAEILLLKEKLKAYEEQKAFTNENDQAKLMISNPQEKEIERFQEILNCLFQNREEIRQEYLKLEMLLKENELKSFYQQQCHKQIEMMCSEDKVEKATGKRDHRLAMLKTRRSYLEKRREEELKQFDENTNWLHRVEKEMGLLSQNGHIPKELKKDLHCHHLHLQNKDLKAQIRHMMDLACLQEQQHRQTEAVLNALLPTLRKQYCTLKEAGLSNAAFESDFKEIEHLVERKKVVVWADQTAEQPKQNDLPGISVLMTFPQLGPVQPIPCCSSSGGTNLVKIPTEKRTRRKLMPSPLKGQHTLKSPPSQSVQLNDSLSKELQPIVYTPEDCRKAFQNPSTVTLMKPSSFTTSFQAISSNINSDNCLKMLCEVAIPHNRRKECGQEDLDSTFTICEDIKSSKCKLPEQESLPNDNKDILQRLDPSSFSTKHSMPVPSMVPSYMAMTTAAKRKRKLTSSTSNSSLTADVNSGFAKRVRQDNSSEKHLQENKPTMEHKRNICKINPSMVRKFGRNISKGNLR
Briefly: Inhibition of recombinant His-tagged human KIF18A (1 to 467 residues) expressed in baculovirus expression system assessed as inhibition of microtubule-stimulated ATPase activity preincubated for 15 mins followed by ATP addition and further incubated for 15 mins and measured after 40 mins by ADP-Glo reagent based assay. (ADP-Glo first removes unused ATP, then detects ADP through luciferase.)

SMILES strings stand for the structures. pIC50: −log10 of the molar value.

Regarding `CC(C)(C)NS(=O)(=O)c1cccc(NC(=O)c2ccc(N3CC[C@@H](O)C3)nc2N2CCC3(CC2)CC3)c1`, the pIC50 (usually −log10 of the IC50, conventionally taken in molar units) was 6.72.
